Results reported in patent publication US7230023B2, “Water-soluble triazole fungicide” (Sankyo Company, Limited, priority 2001, dated 2007).
Values after ≈ are worked out from the molar mass of the structure shown.

Columns and labels:
[1] = tested on: Aspergillus fumigatus SANK 10569; test: Antifungal activity against Aspergillus, MIC by broth microdilution; type: cell-based; conditions: SANK10569, RPMI1640 pH 7.0, 30° C., 24-72 hours, at least 80% growth inhibition, read-out: MIC values A.f.
Experimental: (§1) The antifungal activities of compound A were assessed according to the minimum inhibitory concentrations (MICs) which were measured by the methods described below:
Determination of antifungal activity against Aspergillus: MICs were determined by the broth microdilution method. Test compound was dissolved in DMSO. Serial two-fold dilution of the test compound was performed with DMSO, and then the final dilution was performed with RPMI1640 medium (product of Dainippon Pharmaceutical Co., Ltd.) which was buffered to pH 7.0 with 0.165M MOPS. […] Colonies of the test fungi were suspended in physiological saline followed by adjustment to about 1.0×10^4 cells/ml with RPMI1640 medium which was buffered to pH 7.0 with 0.165M MOPS. 100 μl of the fungal suspension and 100 μl of each diluted test compound solution were mixed in each well of microtitre plates, before incubating at 30° C. for 24-72 hours. […] The MICs were defined as the lowest compound concentrations causing at least 80% growth inhibition when compared with the control.

[2] = tested on: Cryptococcus neoformans TIMM 0362; test: Antifungal activity against Cryptococcus neoformans, MIC by broth microdilution; type: cell-based; conditions: TIMM0362, yeast nitrogen base medium pH 7.0, 35° C., 48-72 hours, at least 50% growth inhibition, absorbance at 485 nm, read-out: MIC values C.n.
Experimental: as §1
Determination of antifungal activity against Cryptococcus neoformans: MICs were determined by the broth microdilution method. Test compound was dissolved in DMSO. Serial two-fold dilution of the test compound was performed with DMSO, and the final dilution was performed with yeast nitrogen base medium (product of Difco Laboratories) buffered to pH 7.0 with 0.165M MOPS. […] Colonies of the test fungi were suspended in physiological saline followed by adjustment to 5.0×10^3 to 2.5×10^4 cells/ml with yeast nitrogen base medium buffered to pH 7.0 with 0.165M MOPS. 100 μl of the fungal suspension and 100 μl of each diluted test compound solution were mixed in each well of microtitre plates, before incubating at 35° C. for 48-72 hours. […] The MICs were defined as the lowest compound concentrations causing at least 50% growth inhibition when compared with the control as measured by light absorbance at 485 nm.

[3] = tested on: Candida albicans TIMM 3165; test: Antifungal activity against Candida, MIC by broth microdilution; type: cell-based; conditions: TIMM3165, RPMI1640 pH 7.0, 35° C., 24-72 hours, at least 80% growth inhibition, read-out: MIC values C.a. (3)
Experimental: as §1
(§2) Determination of antifungal activity against Candida: The MICs were determined by the broth microdilution method. Test compound was dissolved in dimethyl sulfoxide (DMSO). Serial two-fold dilution of the test compound was performed with DMSO, and then the final dilution was performed with RPMI1640 medium (product of Dainippon Pharmaceutical Co., Ltd.) which was buffered to pH 7.0 with 0.165M 3-(morpholino)propanesulfonic acid (MOPS). […] Colonies of the test fungi were suspended in physiological saline followed by adjustment to 5.0×10^2 to 2.5×10^3 cells/ml with RPMI1640 medium which was buffered to pH 7.0 with 0.165M MOPS. 100 μl of the fungal suspension and 100 μl of each diluted test compound solution were mixed in each well of microtitre plates, before incubating at 35° C. for 24-72 hours. […] The MICs were defined as the lowest compound concentrations causing at least 80% growth inhibition when compared with the control.

[4] = tested on: Candida albicans ATCC 64550; test: as above; type: cell-based; conditions: ATCC64550, RPMI1640 pH 7.0, 35° C., 24-72 hours, at least 80% growth inhibition, read-out: MIC values C.a. (1)
Experimental: as §1, §2

[5] = tested on: Candida albicans TIMM 3164; test: as above; type: cell-based; conditions: TIMM3164, RPMI1640 pH 7.0, 35° C., 24-72 hours, at least 80% growth inhibition, read-out: MIC values C.a. (2)
Experimental: as §1, §2

[6] = tested on: human liver microsome preparation; test: Test to confirm formation of active substance: incubation with human liver microsome preparation, HPLC; type: in vitro ADME; conditions: human liver microsome preparation 0.5 mg protein/ml, initial concentration 1 μM, 37° C.
Experimental: The test compound was dissolved in a human liver microsome preparation (0.5 mg protein/ml, GENTEST Corporation) at an intial concentration of 1 μM and the mixture was incubated at 37° C.
A small aliquot of the sample was collected at certain time intervals, and the rate of persistence of the original compound and the rate of formation of compound A, the active substance with the chemical structure shown below, were determined by HPLC.
The results of incubating the compound of Example 5 (the disodium salt of example number 5-16) with the human liver microsome preparation are shown in FIG. 1.

C[C@@H](S[C@H]1CO[C@H](/C=C/C=C/c2ccc(C#N)cc2F)OC1)[C@](O)(Cn1cncn1)c1ccc(F)cc1F [Compound A]
MIC [1]: 0.031 µg/mL (≈ 0.0571 µM)
MIC [2]: ≤ 0.008 µg/mL
MIC [3]: 0.063 µg/mL (≈ 0.116 µM)
MIC [4]: 0.25 µg/mL (≈ 0.461 µM)
MIC [5]: ≤ 0.008 µg/mL

C[C@@H](S[C@H]1CO[C@H](/C=C/C=C/c2ccc(C#N)cc2F)OC1)[C@@](Cn1cncn1)(OC(=O)c1cc(C#N)ccc1COP(=O)([O-])[O-])c1ccc(F)cc1F.[Na+].[Na+] [Example 5, Disodium 4-cyano-2-[[(1R,2R)-2-[[trans-2-[(1E,3E)-4-(4-cyano-2-fluorophenyl)-1,3-butadienyl]-1,3-dioxan-5-yl]thio]-1-(2,4-difluorophenyl)-1-[(1H-1,2,4-triazol-1-yl)methyl]propoxy]carbonyl]benzyl phosphate]
rate of persistence of the original compound [6]: diminished immediately after the incubation started
rate of formation of compound A (active substance) ([6]; after incubation for 30 min): completely converted to compound A
